The values below come from ChEMBL document CHEMBL4354815, “Fibrinolysis Inhibitors: Potential Drugs for the Treatment and Prevention of Bleeding” (J Med Chem, 2020).

In one test the test system is Plasma. The experiment in a line: Anti-fibrinolytic activity in 5% human plasma in presence of fibrinogen by spectrophotometric method. The test is classed as functional, cell-free.
Test [1] concerns the target T1, Plasminogen (Homo sapiens, UniProt P00747). Kind of test: Inhibition of plasmin (unknown origin).
In test [2] the target is Urokinase-type plasminogen activator (Homo sapiens, UniProt P00749). Kind of test: Inhibition of urokinase-type plasminogen activator (unknown origin).
The next test addresses Coagulation factor XI (Homo sapiens, UniProt P03951). The experiment in a line: Inhibition of human factor 11a preincubated for 15 mins followed by Boc-Glu (OBzl) -Ala-Arg-AMC and measured after 30 mins by fluorescence method.
Test [3] concerns the target T1, Plasminogen. Kind of test: Inhibition of human plasmin preincubated for 15 mins followed by MeOSuc-Ala-Phe-Lys-AMC substrate addition and measured after 30 mins by fluorescence method.
Test [4] concerns the target T2, Plasma kallikrein (Homo sapiens, UniProt P03952). Kind of test: Inhibition of human plasma kallikrein preincubated for 15 mins followed by H-Pro-Phe-Arg-AMC substrate addition and measured after 30 mins by fluorescence method.
Test [5] has as its target T2, Plasma kallikrein. The experiment in a line: Inhibition of human plasma kallikrein using S2302 as substrate after 10 mins by UV/Vis photometry.
Test [6] has as its target T1, Plasminogen. Kind of test: Inhibition of human plasmin using tosyl-Gly-Pro-Lys-pNA as substrate after 10 mins by UV/Vis photometry.
Test [7] deals with T1, Plasminogen. Kind of test: Inhibition of microplasmin (unknown origin) expressed in Pichia pastoris preincubated for 10 mins followed by S2251 substrate addition.
In test [8] the target is T1, Plasminogen. The experiment in a line: Inhibition of plasmin (unknown origin) assessed as reduction in amidolytic activity using S-2251 as the substrate after 4 mins.

Structures are written as SMILES.

T1 sequence (P00747 97-580 limits assumed): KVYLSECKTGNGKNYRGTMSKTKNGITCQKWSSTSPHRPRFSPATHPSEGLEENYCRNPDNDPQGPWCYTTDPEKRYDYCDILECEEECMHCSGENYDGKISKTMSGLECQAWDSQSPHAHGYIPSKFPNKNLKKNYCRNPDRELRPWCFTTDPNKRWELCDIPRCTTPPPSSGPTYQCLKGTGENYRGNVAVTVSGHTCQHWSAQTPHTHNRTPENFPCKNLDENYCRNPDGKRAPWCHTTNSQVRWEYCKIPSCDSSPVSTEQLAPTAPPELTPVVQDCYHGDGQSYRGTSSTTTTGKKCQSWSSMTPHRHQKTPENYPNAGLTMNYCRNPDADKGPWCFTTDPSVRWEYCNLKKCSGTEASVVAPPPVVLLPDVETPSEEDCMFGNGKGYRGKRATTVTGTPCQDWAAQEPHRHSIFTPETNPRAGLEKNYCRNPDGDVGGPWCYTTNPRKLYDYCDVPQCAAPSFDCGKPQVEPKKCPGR
T1 sequence (P00747 581-810 limits assumed): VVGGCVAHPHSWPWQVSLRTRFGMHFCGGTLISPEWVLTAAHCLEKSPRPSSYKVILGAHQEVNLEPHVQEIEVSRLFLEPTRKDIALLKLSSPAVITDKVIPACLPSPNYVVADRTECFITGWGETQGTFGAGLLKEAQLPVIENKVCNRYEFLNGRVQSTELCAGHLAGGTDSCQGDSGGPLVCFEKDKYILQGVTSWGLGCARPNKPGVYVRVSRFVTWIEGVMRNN
T2 sequence (P03952 20-390 limits assumed): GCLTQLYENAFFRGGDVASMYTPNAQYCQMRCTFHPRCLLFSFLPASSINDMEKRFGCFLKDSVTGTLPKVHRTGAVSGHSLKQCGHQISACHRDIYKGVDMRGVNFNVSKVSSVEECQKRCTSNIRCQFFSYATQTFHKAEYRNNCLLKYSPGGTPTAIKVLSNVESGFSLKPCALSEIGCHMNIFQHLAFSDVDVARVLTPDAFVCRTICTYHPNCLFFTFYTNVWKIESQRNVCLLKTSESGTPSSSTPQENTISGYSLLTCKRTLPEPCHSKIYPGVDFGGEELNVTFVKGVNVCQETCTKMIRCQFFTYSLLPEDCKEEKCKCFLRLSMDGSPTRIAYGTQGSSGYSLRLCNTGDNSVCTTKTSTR
T2 sequence (P03952 391-638 limits assumed): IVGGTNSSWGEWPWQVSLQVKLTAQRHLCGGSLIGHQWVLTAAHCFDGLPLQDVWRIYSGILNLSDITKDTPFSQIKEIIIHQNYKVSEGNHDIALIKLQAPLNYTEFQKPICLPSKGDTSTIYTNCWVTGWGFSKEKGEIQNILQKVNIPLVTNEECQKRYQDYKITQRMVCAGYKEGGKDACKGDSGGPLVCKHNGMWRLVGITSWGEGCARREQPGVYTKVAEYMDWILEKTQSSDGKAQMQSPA
Coagulation factor XI, sequence (P03951 19-387 limits assumed): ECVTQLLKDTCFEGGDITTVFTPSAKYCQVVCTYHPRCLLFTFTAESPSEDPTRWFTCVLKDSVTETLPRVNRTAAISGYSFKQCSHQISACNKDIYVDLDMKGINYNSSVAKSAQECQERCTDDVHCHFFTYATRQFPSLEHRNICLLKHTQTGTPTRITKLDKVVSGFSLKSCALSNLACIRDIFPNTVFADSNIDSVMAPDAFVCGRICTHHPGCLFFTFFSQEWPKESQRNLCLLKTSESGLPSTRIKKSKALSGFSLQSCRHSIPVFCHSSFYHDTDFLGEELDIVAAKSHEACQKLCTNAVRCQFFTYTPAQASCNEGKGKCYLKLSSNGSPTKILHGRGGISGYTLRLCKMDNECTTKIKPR
Coagulation factor XI, sequence (P03951 388-625 limits assumed): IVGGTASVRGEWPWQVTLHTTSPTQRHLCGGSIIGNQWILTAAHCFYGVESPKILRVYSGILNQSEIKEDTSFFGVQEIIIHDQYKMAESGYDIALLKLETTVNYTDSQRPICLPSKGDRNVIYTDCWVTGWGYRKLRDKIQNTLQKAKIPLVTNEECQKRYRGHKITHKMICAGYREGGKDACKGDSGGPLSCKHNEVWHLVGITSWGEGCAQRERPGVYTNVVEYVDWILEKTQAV

As a reminder, the IC50 is the point on the concentration scale where inhibition reaches its midpoint. Consider `CCC(C)C(=O)c1cnn2c(C3CCNCC3)cc(=O)[nH]c12` (stereo not given), for which the IC50 in the test with Plasma came out at 8 nM.

Regarding `CCc1ccc(C(=O)Nc2cccc3nn4c(C5CCNCC5)cc(=O)[nH]c4c23)cc1`, the IC50 in the test on Plasma is 10 nM.

By Ki is commonly meant a dissociation constant, usually derived from enzyme kinetics or from competition with a known ligand. A low value points to tighter binding. With `N=C(N)c1ccc(CNC(=O)[C@H](CCc2ccccc2)NC(=O)[C@@H](CO)NS(=O)(=O)Cc2ccccc2)cc1`, the Ki was determined as 36 nM on Plasminogen [1] and 28 nM in test [2].

For the compound `Cc1nc2nc(C(C)C)[nH]c2cc1-c1ccc(C[C@H](NC(=O)[C@H]2CC[C@H](CN)CC2)C(=O)Nc2ccc(-c3nnc(C(F)(F)C(F)(F)C(=O)O)[nH]3)cc2)cc1`, the IC50 is under 0.13 nM against Coagulation factor XI, 0.42 nM on Plasminogen [3] and 1.7 nM against Plasma kallikrein [4].

As for `O=C(c1cnn2c(C3CCNCC3)cc(=O)[nH]c12)C1CC1`, the IC50 in the test on Plasma was 8 nM.

Take `N=C(N)c1ccc(CNC(=O)[C@H](Cc2cccc(CN)c2)NC(=O)[C@@H](Cc2ccc3ccccc3c2)NS(=O)(=O)Cc2ccccc2)cc1`: the Ki on Plasma kallikrein [5] stood at 0.1 nM; at Plasminogen [6], 1.1 nM.

On to `Cc1cc2c(=O)c(C(=O)O)c[nH]c2cc1-c1ccc(C[C@H](NC(=O)[C@H]2CC[C@H](CN)CC2)C(=O)Nc2cc(Cl)c3[nH]c(=O)[nH]c3c2)cc1`, for which the IC50 against Coagulation factor XI stood at 6.5 nM; against Plasminogen [3], 2.1 nM; at Plasma kallikrein [4], 0.7 nM.

Take `Cc1cc2nc(C(C)C)[nH]c2cc1-c1ccc(C[C@H](NC(=O)[C@H]2CC[C@H](CN)CC2)C(=O)Nc2ccc(-c3nnc(C(F)(F)C(F)(F)C(=O)O)[nH]3)cc2)cc1`: the results for the IC50 at Coagulation factor XI, against Plasminogen [3] and on Plasma kallikrein [4] were 0.34 nM, 0.87 nM and 7.2 nM, respectively.

For the compound `CNC(=O)c1ccc(NC(=O)[C@H](Cc2ccc(-c3cc4[nH]cc(C(=O)O)c(=O)c4cc3C)cc2)NC(=O)[C@H]2CC[C@H](CN)CC2)cc1Cl`, the values for the IC50 against Coagulation factor XI, against Plasminogen [3] and at Plasma kallikrein [4] were 21.5 nM, 1 nM and 8.5 nM, respectively.

Turning to `CCCCCCCCNC(=O)[C@H](Cc1ccc(OCc2ccc3ccccc3n2)cc1)NC(=O)[C@H]1CC[C@H](CN)CC1`, the 50% inhibitory concentration (IC50) on Plasminogen [7] stood at 380 nM.

As to `Cc1nc2[nH]c(C3CC3)nc2cc1-c1ccc(C[C@H](NC(=O)[C@H]2CC[C@H](CN)CC2)C(=O)Nc2cc(Cl)c3[nH]c(=O)[nH]c3c2)cc1`, the results for the IC50 against Coagulation factor XI and against Plasminogen [3] were 0.7 nM and 0.4 nM, respectively.

For the compound `NC[C@H]1CC[C@H](C(=O)N[C@@H](CCCCNC(=O)OCc2ccccc2)C(=O)COc2ccc(C(=O)c3ccccc3)cc2)CC1`, the IC50 on Plasminogen [8] was 200000 nM.

`C#Cc1cccc2nn3c(C4CCNCC4)cc(=O)[nH]c3c12`: the IC50 in the test with Plasma was 10 nM.

Regarding `CCCCCCCCNC(=O)[C@H](Cc1ccc(OCc2ccncc2)cc1)NC(=O)[C@H]1CC[C@H](CN)CC1`, on Plasminogen [7], the half-maximal inhibitory concentration (IC50) amounted to 240 nM.

For the compound `O=C(NCc1ccco1)Nc1cccc2nn3c(C4CCNCC4)cc(=O)[nH]c3c12`, the IC50 with Plasma is 85 nM.

As to `N=C(N)c1ccc(CNC(=O)[C@H](CCc2ccncc2)NC(=O)[C@@H](CCCc2ccccc2)NS(=O)(=O)Cc2ccccc2)cc1`, the figures for the Ki at Plasma kallikrein [5] and at Plasminogen [6] were 0.6 nM and 0.48 nM, respectively.

Consider `CCCc1noc(-c2c(C)nn3c(C4CCNCC4)cc(=O)[nH]c23)n1`, for which, in the test with Plasma, the IC50 was determined as 6 nM.

For `CC(C)(C)NC(=O)Nc1cccc2nn3c(C4CCNCC4)cc(=O)[nH]c3c12`, the IC50 with Plasma was 9.1 nM.

With `NCCCC[C@H](NC(=O)[C@H]1CC[C@H](CN)CC1)C(=O)NCOc1ccc(C(=O)c2ccccc2)cc1`, the IC50 on Plasminogen [8] was determined as 660000 nM.

With `CC[C@@H](C)[C@@H](N)C(=O)N[C@@H](Cc1ccccc1)C(=O)N[C@@H](CCCCN)C(=O)Nc1ccc(C(=O)c2ccccc2)cc1`, the IC50 at Plasminogen [8] turned out to be 69000 nM.

Turning to `Cc1cc(Cl)c2c(c1)nn1c(C3CCNCC3)cc(=O)[nH]c21`, the IC50 in the test on Plasma stood at 11 nM.

As to `NCCCCCC(=O)N[C@@H](CCCCN)C(=O)Nc1ccc(C(=O)c2ccccc2)cc1`, the IC50 at Plasminogen [8] amounted to 12000 nM.

As to `O=c1cc(C2CCNCC2)n2nc3ccc(F)c(-c4ccccc4)c3c2[nH]1`, the IC50 in the test on Plasma amounted to 11 nM.
